This note sets out measurements from patent US8143259B2, “Cold menthol receptor antagonists” (Janssen Pharmaceutica, NV, priority 2008, dated 2012).

The target of this assay is T1, canine TRPM8 (Canis lupus familiaris, UniProt Q1A7N1).
T1 construct: expressed in transfected cells
Briefly: In Vitro Canine TRPM8 Functional Assay (Ca2+ fluorescence, icilin activation). In kind it is cell-based. The settings on record: for inhibition at 0.2 µM: HEK293, 0.2 μM compound; for inhibition at 0.2 µM / % Inh @ 0.2 μM / inhibition at 0.5 µM / % Inh @ 0.5 μM / inhibition at 1 µM: canine TRPM8 HEK293, icilin; for IC50: HEK293 cells stably expressing canine TRPM8, icilin activation, Ca2+ fluorescence; for % Inh @ 0.2 μM: 0.2 μM compound; for inhibition at 0.5 µM: HEK293, 0.5 μM compound; for % Inh @ 0.5 μM: 0.5 μM compound; for inhibition at 1 µM: HEK293, 1 μM compound. Put shortly:
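Antagonism read as inhibition of the intracellular Ca2+ rise evoked by icilin (~EC80), measured by FLIPR or FDSS. Stable canine TRPM8 HEK293 line, Calcium 3 dye; 5 min compound preincubation. Normalised, basal-corrected peak fluorescence from quadruplicates fitted to sigmoidal curves.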

T1 sequence (Q1A7N1 1-1104): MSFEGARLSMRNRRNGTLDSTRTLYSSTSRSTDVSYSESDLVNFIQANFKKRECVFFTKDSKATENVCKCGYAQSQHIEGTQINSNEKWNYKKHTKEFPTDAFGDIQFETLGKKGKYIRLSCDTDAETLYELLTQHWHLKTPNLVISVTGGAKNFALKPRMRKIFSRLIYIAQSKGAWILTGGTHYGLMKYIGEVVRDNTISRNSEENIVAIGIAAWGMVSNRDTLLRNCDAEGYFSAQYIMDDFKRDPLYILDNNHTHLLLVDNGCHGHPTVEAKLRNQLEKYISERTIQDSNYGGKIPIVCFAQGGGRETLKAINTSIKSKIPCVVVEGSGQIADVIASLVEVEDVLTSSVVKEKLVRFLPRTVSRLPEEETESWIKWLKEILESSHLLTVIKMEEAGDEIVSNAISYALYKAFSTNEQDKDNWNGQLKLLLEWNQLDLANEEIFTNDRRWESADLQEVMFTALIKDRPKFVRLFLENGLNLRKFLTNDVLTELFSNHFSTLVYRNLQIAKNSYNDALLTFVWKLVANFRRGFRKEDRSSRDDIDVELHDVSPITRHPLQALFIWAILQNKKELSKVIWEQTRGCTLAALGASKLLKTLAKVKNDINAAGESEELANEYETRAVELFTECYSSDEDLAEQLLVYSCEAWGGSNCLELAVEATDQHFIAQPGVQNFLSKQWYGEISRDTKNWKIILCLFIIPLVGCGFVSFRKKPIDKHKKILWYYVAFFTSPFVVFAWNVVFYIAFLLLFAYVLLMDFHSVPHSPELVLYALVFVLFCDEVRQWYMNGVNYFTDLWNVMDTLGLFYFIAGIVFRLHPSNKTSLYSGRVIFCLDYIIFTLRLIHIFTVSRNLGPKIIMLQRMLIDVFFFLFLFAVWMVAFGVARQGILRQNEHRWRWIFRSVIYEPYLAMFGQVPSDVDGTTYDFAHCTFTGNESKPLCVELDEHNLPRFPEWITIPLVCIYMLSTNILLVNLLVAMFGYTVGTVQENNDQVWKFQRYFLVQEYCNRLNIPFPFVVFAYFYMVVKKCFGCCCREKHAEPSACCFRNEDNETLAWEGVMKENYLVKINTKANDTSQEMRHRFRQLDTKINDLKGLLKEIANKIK

Take `O=C(C(Nc1cc(F)ccc1F)c1ccc(Cl)cc1)N1CCCC1c1ccccc1Cl` (stereo not shown) [Cpd 171]: the inhibition at 0.2 µM was 98% and 41.8 nM corresponded to half-maximal inhibition (IC50). Consider `O=C(C(Nc1c(F)cccc1F)c1ccc(Br)cc1)N1CCC[C@H]1c1ccccc1F` (stereo partly shown) [Cpd 181], for which the inhibition at 0.2 µM worked out at 96% and it took 5 nM to reach half-maximal inhibition (IC50). With `COC(=O)c1cccc(C2CCCN2C(=O)C(Nc2ccccc2F)c2ccc(C(F)(F)F)cc2)c1` (mixture of isomers) [Cpd 221], the “% Inh @ 0.2 μM” value was determined as 102% and it took 22 nM to reach half-maximal inhibition (IC50). In the case of `O=C(C(Nc1cccc(F)c1F)c1ccc(Cl)cc1)N1CCCC1c1ccccc1` (stereo not shown) [Cpd 168], the inhibition at 0.5 µM is 97% and half-maximal inhibition (IC50) required 35 nM. Turning to `O=C(C(c1ccc(C(F)(F)F)cc1)N1CCCc2ccccc21)N1CCCC1c1cccnc1` (mixture of isomers) [Cpd 336], the “% Inh @ 0.2 μM” value worked out at 43%. For the compound `O=C(C(Nc1ccccc1F)c1cnc2ccccc2c1)N1CCCC1c1ccccc1F` (stereo not shown) [Cpd 281], the inhibition at 0.2 µM is 89% and inhibition was half-maximal at 94 nM (IC50). As for `O=C(C(Nc1ccccc1)c1ccc(Cl)cc1)N1[C@H](CO)CC[C@@H]1c1ccccc1` (single isomer, unassigned) [Cpd 235], it took 53.7 nM to reach half-maximal inhibition (IC50). In the case of `O=C(C(Nc1ccccc1)c1ccc(C(F)(F)F)cc1)N1CCCC1c1ccco1` (stereo not shown) [Cpd 52], the inhibition at 0.5 µM was found to be 97.8% and the midpoint of inhibition, the IC50, lay at 19.8 nM.

On to `COC(=O)C1CCC(c2ccccc2)N1C(=O)C(Nc1ccccc1)c1ccc(Cl)cc1` (stereo not shown) [Cpd 207], for which the “% Inh @ 0.2 μM” value (0.2 µM) came out at 47%.

On to `O=C(C(Nc1ccc(F)cc1)c1ccc(C(F)(F)F)cc1)N1CCCC1c1ccccc1` (single isomer, unassigned) [Cpd 76], for which the IC50 was determined as 101 nM. For the same compound, the “% Inh @ 0.5 μM” value (0.5 µM) is 97%.

As for `O=C(C(Nc1ccc(F)cc1F)c1ccc(Cl)cc1)N1Cc2cccc(F)c2C1` (stereo not shown) [Cpd 127], the inhibition at 0.5 µM worked out at 97% and the IC50 is 86.9 nM. With `O=C(C(Nc1c(F)cccc1F)c1ccc(Cl)cc1)N1CCCC1c1cccnc1` (mixture of isomers) [Cpd 270], the “% Inh @ 0.2 μM” value came out at 58%.

For the compound `O=C(C(Nc1ccccc1)c1ccc(C(F)(F)F)cc1)N1CCCC1c1nccs1` (stereo not shown) [Cpd 49], the inhibition at 0.5 µM was 102% and the midpoint of inhibition, the IC50, lay at 78.3 nM. In the case of `O=C(C(Cc1ccccc1F)c1ccc(C(F)(F)F)cc1)N1Cc2ccccc2C1` (stereo not shown) [Cpd 200], the inhibition at 0.2 µM came to 89% and the IC50 was determined as 55 nM.

On to `O=C(C(Nc1ccc(F)cc1)c1ccc(Cl)cc1)N1CCCC1c1ccccc1` (stereo not shown) [Cpd 119], for which the inhibition at 0.5 µM was 100% and 69.7 nM corresponded to half-maximal inhibition (IC50). On to `CCOC(=O)c1ccc(C(Nc2ccccc2F)C(=O)N2CCCC2c2ccccc2F)cc1` (stereo not shown) [Cpd 287], for which the inhibition at 0.2 µM amounted to 92% and the IC50 amounted to 27 nM. As for `Cc1c(C(Cc2ccccc2F)C(=O)N2CCCC2c2ccccc2F)sc2ccccc12` (mixture of isomers) [Cpd 177], the “% Inh @ 0.2 μM” value is on record as 63%. For `O=C(C(Nc1ccccc1F)c1ccc(C(F)(F)F)cc1)N1CCCC1c1ccccc1F` (mixture of isomers) [Cpd 131], the IC50 came to 6.9 nM. Further, the “% Inh @ 0.5 μM” value (0.5 µM) is reported as 103%. Take `O=C(C(Nc1ccccc1)c1cccc(C(F)(F)F)c1)N1Cc2ccccc2C1` (stereo not shown) [Cpd 99]: the inhibition at 0.5 µM came to 99% and the half-inhibitory concentration (IC50) is 89 nM. On to `CC(C)(C)c1ccc(C(Nc2ccccc2)C(=O)N2CCCCCC2c2ccccc2)cc1` (stereo not shown) [Cpd 18], for which the inhibition at 1 µM came to 95.4% and the IC50 was 349 nM. Take `O=C(C(Nc1ccc(F)cc1)c1ccc(Cl)cc1)N1CCCC1c1ccccc1F` (stereo not shown) [Cpd 117]: the inhibition at 0.5 µM worked out at 101% and the IC50 was 47.5 nM.

As for `O=C(C(Nc1c(F)cccc1F)c1ccc(Cl)cc1)N1CCCC1c1ccccc1F` (stereo not shown) [Cpd 144], the inhibition at 0.5 µM worked out at 102% and the IC50 was determined as 11 nM.

For the compound `O=C(C(Nc1ccccc1)c1ccc(C(F)(F)F)cc1)N1CCCC1c1ccccc1Cl` (single isomer, unassigned) [Cpd 60], the IC50 turned out to be 41.4 nM. For the same compound, the “% Inh @ 0.5 μM” value (0.5 µM) worked out at 103.24%.

Turning to `O=C(C(Nc1ccccc1F)c1cc2ccccc2s1)N1CCCC1c1ccncc1` (single isomer, unassigned) [Cpd 322], the inhibition at 0.2 µM turned out to be 89% and half-maximal inhibition (IC50) required 8 nM.

Take `O=C([C@H](Nc1c(F)cccc1F)c1ccc(Br)cc1)N1[C@H](CO)CC[C@@H]1c1ccccc1` (single isomer, unassigned) [Cpd 243]: the inhibition at 0.2 µM came out at 88% and the IC50 amounted to 133 nM. Take `O=C(C(Nc1ccc(F)cc1)c1ccc(Cl)cc1)N1CCCC1c1ccccc1Cl` (stereo not shown) [Cpd 116]: the inhibition at 0.5 µM was determined as 98% and inhibition was half-maximal at 80.3 nM (IC50). On to `O=C(C(Nc1ccccc1F)c1cc2ccccc2s1)N1CCCC1c1ccccn1` (single isomer, unassigned) [Cpd 331], for which the “% Inh @ 0.2 μM” value was found to be 101% and the midpoint of inhibition, the IC50, lay at 13 nM. For the compound `CN(C)c1ccc(C2CCCN2C(=O)C(Nc2ccccc2F)c2ccc(C(F)(F)F)cc2)cc1` (stereo not shown) [Cpd 178], the inhibition at 0.2 µM stood at 100% and inhibition was half-maximal at 10 nM (IC50). Take `O=C(C(Nc1ccccc1F)c1ccc(C(F)(F)F)cc1)N1CCCC1c1ccccc1Cl` (stereo not shown) [Cpd 188]: the “% Inh @ 0.2 μM” value stood at 30%. With `O=C(C(Nc1ccccc1)c1ccc(C(F)(F)F)cc1)N1CCCC1c1ccccc1Br` (stereo not shown) [Cpd 29], the inhibition at 0.5 µM was 104% and the IC50 was found to be 40.9 nM. With `O=C(C(Nc1ccccc1F)c1ccc2ncccc2c1)N1CCCC1c1ccccc1Cl` (single isomer, unassigned) [Cpd 315], the “% Inh @ 0.2 μM” value is listed as 49%. Compound `O=C(C(Nc1ccccc1F)c1cnc2ccccc2c1)N1Cc2ccccc2C1` (stereo not shown) [Cpd 371] came in with an IC50 of 100 nM. As for `CC(C)(C)c1ccc(C(Nc2ccccc2)C(=O)N2CCC(c3ccccc3)C2)cc1` (stereo not shown) [Cpd 13], the inhibition at 1 µM was found to be 103% and the IC50 was found to be 323 nM. As to `O=C(C(Nc1c(F)cccc1F)c1ccc(Cl)cc1)N1CCCc2ccccc21` (stereo not shown) [Cpd 366], the inhibition at 0.2 µM is 98% and half-maximal inhibition (IC50) required 46 nM.

As to `CC(C)(O)c1ccccc1OC(C(=O)N1CCCC1c1ccccc1F)c1ccc(C(F)(F)F)cc1` (stereo not shown) [Cpd 199, 1-[2-(2-Fluoro-phenyl)-pyrrolidin-1-yl]-2-[2-(1-hydroxy-1-methyl-ethyl)-phenoxy]-2-(4-trifluoromethyl-phenyl)-ethanone], the inhibition at 0.2 µM was determined as 62%. Turning to `O=C(C(Nc1ccccc1F)c1ccc(C(F)(F)F)cc1)N1CCCC1c1cncc(Br)c1` (single isomer, unassigned) [Cpd 345], the inhibition at 0.2 µM was 92% and the IC50 came out at 44 nM.

In the case of `O=C(C(Nc1ccc(F)cc1)c1ccc(Cl)cc1)N1Cc2ccccc2C1` (stereo not shown) [Cpd 120], the inhibition at 0.5 µM came out at 95% and the IC50 is 130 nM. On to `O=C(C(Nc1ccccc1F)c1ccc(C(F)(F)F)cc1)N1CCc2ccccc21` (stereo not shown) [Cpd 36], for which the inhibition at 0.5 µM was 90.7% and the IC50 is 459 nM. In the case of `CN(C)c1ccc(C2CCCN2C(=O)C(Nc2ccccc2F)c2ccc(Cl)cc2)cc1` (stereo not shown) [Cpd 272], the inhibition at 0.2 µM was 96% and the IC50 was found to be 110 nM. `O=C(C(Nc1ccccc1F)c1ccc(Cl)cc1)N1CCCC1c1ccccc1` (stereo not shown) [Cpd 112]: the inhibition at 0.5 µM was 96% and the IC50 amounted to 18.1 nM.

As for `O=C(C(Nc1ccccc1F)c1ccc(-c2ccc(-c3nnn[nH]3)cc2)cc1)N1CCC[C@H]1c1ccccc1F` (stereo partly drawn) [Cpd 354, 2-(2-Fluoro-phenylamino)-1-[(2S)-2-(2-fluoro-phenyl)-pyrrolidin-1-yl]-2-[4′-(1H-tetrazol-5-yl)-biphenyl-4-yl]-ethanone], the inhibition at 0.2 µM turned out to be 53%. On to `COc1ccccc1C1CCCN1C(=O)C(Nc1ccccc1)c1ccc(C(F)(F)F)cc1` (stereo not shown) [Cpd 43], for which the inhibition at 0.5 µM is 101% and the IC50 was 33.3 nM. For `COc1ccccc1C1CCCN1C(=O)C(Nc1cccc(F)c1)c1ccc(C(F)(F)F)cc1` (stereo not shown) [Cpd 79] the same measures were 98% and 50 nM.

In the case of `O=C(C(Nc1ccccc1F)c1cc2ccccc2s1)N1CCCC1c1cccnc1` (stereo not shown) [Cpd 319], the inhibition at 0.2 µM was found to be 94% and half-maximal inhibition (IC50) was put at 25 nM. For `O=C(C(Cc1c(F)cccc1F)c1ccc(C(F)(F)F)cc1)N1CCCC1c1ccccc1Cl` (stereo not shown) [Cpd 267], the inhibition at 0.2 µM was determined as 98% and the IC50 stood at 30 nM. As for `CC(C)(C)OC(=O)N1CC=C(c2ccc(C(Nc3ccccc3F)C(=O)N3CCCC3c3ccccc3F)cc2)CC1` (stereo not shown) [Cpd 299, 4-(4-{1-(2-Fluoro-phenylamino)-2-[2-(2-fluoro-phenyl)-pyrrolidin-1-yl]-2-oxo-ethyl}-phenyl)-3,6-dihydro-2H-pyridine-1-carboxylic acid tert-butyl ester], the inhibition at 0.2 µM stood at 99% and half-maximal inhibition (IC50) was put at 65 nM. Take `O=C(C(Nc1c(F)cccc1F)c1cc2ccccc2s1)N1CCCC1c1ccccc1F` (stereo not shown) [Cpd 361]: the inhibition at 0.2 µM came out at 96% and the IC50 was determined as 8 nM. Turning to `O=C(C(Nc1ccccc1F)c1ccc(C(F)(F)F)cc1)N1CCCC1c1ccccc1F` (mixture of isomers) [Cpd 153], half-maximal inhibition (IC50) was put at 44 nM. Where the note is “0.5 µM”, the “% Inh @ 0.5 μM” value turned out to be 99.694%. In the case of `O=C(C(Nc1ccccc1)c1cnc2ccccc2c1)N1CCCC1c1ccccc1F` (stereo not shown) [Cpd 226], half-maximal inhibition (IC50) was put at 42.5 nM. In the case of “1-[2-(2-Chloro-phenyl)-pyrrolidin-1-yl]-3-phenylamino-2-(4-trifluoromethyl-phenyl)-propan-1-one [Cpd 83]”, the “% Inh @ 0.5 μM” value is recorded as 96% and half-maximal inhibition (IC50) required 248 nM. On to `O=C(C(CNc1ccccc1)c1ccc(C(F)(F)F)cc1)N1Cc2ccccc2C1` (stereo not shown) [Cpd 100], for which the inhibition at 0.5 µM worked out at 90% and half-maximal inhibition (IC50) required 290 nM.

By inhibition is commonly meant the relative decrease from the control value, in per cent. For orientation: IC50 means the concentration that inhibits the measured activity by half.
